Source: patent US9499554B2, “Anti-influenza compositions and methods” (priority 2013, dated 2016)
Converted amounts (≈) assume the structure as drawn. Like-named read-outs stand apart in the source and are kept apart here.

Assays:
[1] = tested on: Influenza A H5N1 VN/1203/2004 Hybrid (on H1N1 backbone); assay: microbe, parasite or virus in culture; format: cell-based; conditions: Influenza A virus, read-out: EC50, Visual CPE Assay
[2] = tested on: Influenza A H5N1 VN/1203/2004 Hybrid (on H1N1 backbone); assay: microbe, parasite or virus in culture; format: cell-based; conditions: Influenza A virus

Nc1ncnc2c([C@@H]3N[C@H](CO)[C@@H](O)[C@H]3O)c[nH]c12 [compound 1, (2S,3S,4R,5R)-2-(4-Amino-5H-pyrrolo[3,2-d]pyrimidin-7-yl)-5-(hydroxymethyl)pyrrolidine-3,4-diol]
EC50 [1]: 0.63 µg/mL (≈ 2.37 µM) | EC50 ([2]; MDCK, read-out: EC50, antiviral activity in MDCK cells): 0.99 µg/mL (≈ 3.73 µM) | EC50 ([2]; read-out: EC50, Neutral Red Uptake Assay): 0.99 µg/mL (≈ 3.73 µM)
